Assay results: patent US7629385B2, “Sphingolipid-derived pharmaceutical compositions” (priority 2004, dated 2009)

Columns and labels:
[1] = system: vesicular stomatitis virus (VSV); format: cell-based; details: HeLa cells
Raft liposomes = assay: Disrafter-Liposome Raftophile Assay (D-LRA); details: test compound 100 μM
Method: The raftophilicity of certain fluorescent indicators varies with the raft content of liposomes which, in turn, is determined by their lipid composition and the presence of raft modulators.
The D-LRA assay detects two extremes of raft modulation, disrafting and raft augmentation. % disrafting below 0 results from an actual increase in partition of the indicator, caused by an increased raft content of the liposomes. […] Significance can be ascribed to values above 25% (disrafting) and below −25% (disrafters by “augmentation”).
Liposomes (defined below) with a raft content of about 50% are incubated with potential disrafters. The change in raft content is then determined with an indicator (standard raftophile).
Raft liposomes: (35% cholesterol, 10.5% shingomyelin (SM), 3.5% GM1, 25.5% phosphatidylethanolamine (PE) and 25.5% phosphatidylcholine (PC))
Non-raft liposomes: N liposomes (50% PE, PC)
Liposomes are prepared by spreading lipids dissolved in tert. butanol on a glass surface at 50° C. in a rotary evaporator rinsed with nitrogen. After 6 h desiccation the lipids are taken up in 40 mM octyl-β-D-glucoside (OG) to a concentration of 1 mg/ml and dialysed for 24 h against 2 changes of 5 I PBS with 25 g Biobeads (Amberlite XAD-2) at 22° C.
Indicators are fluorescent compounds which preferentially partition into rafts. These are selected to represent different structural classes, and different excitation/emission wavelengths. This is important when raft modulators are tested which interfere with indicator fluorescence.
Perylene is a raftophilic compound which embeds completely into membranes.
GS-96 is a raftophilic adduct of the general structure cholesterol-linker-rhodamine-peptide (only the cholesterol is membrane-inserted).
N and R Liposomes were diluted into PBS to a final lipid concentration of 200 μg/ml and 100 μl aliquots preincubated 30 min 37° C. on a thermomixer (1000 rpm).
1 μl of DMSO (solvent controls) and the test compound stock solutions (all 10 mM in DMSO, except where noted) were added and incubated 2 h as above.
1 μl indicator in DMSO was then added (final indicator concentrations GS-96 0.2 μM, perylene 2 μM) and incubation continued for 1 h as above
Incubation mixes were centrifuged 20 min in the TLA-100 rotor of the Beckman Optima centrifuge at 400 000 g (37° C.).

PR8 virus = assay: microbe, parasite or virus in culture; format: cell-based, influenza virus
RBL-2H3 cells = assay: Degranulation assay (β-hexosaminidase release); format: cell-based, rat
Influenza virus = assay: Virus budding assay (influenza assay); format: cell-based; details: MDCK cells
HIV-1 strain NL4-3 = assay: HIV assay: infection of HeLa TZM cells; format: cell-based; details: Human immunodeficiency virus 1, NL43, vs solvent
[2] = unidentified influenza virus, PR8, MDCK, read-out: inhibition of PR8 virus replication
[3] = Rattus norvegicus, RBL-2H3, 25 μM, vs solvent vehicle

Row | SMILES | Disrafting Activity [%] (Raft liposomes; perylene as marker) | inhibition at 20 µM (PR8 virus; [2]) | inhibition at 100 µM (PR8 virus; [2]) | further results
1 | CCCCCCCCCCCCC/C=C/[C@@H](O)[C@H](CO)NC(=O)COCCOC [Compound 10a] | 99.2% | – | – | effect on viral infection in the VSV counterscreen [1]: no inhibitory effect on viral infection at all
2 | CCCCCCCCCCCCC/C=C/[C@@H](O)[C@H](CO)NC(=O)[C@H]1CC[C@H](C(C)(C)C)CC1 [Compound 10e, N-(trans-4-tert-butylcyclohexylcarbonyl)-D-erythro-sphingosine] | – | – | – | inhibition at 10 µM (PR8 virus; [2]): 21%
3 | CCCCCCCCCCCCCC=CC(O)C(CO)NC(=O)COCCOCCOCCOCCOC [Compound 10g, N-(3,6,9,12,15-Pentoxahexadecanoyl)-D-erythro-sphingosine] | 89.3% | – | – | inhibition of PR8 virus replication (PR8 virus; 20 μM, MDCK cells, vs solvent vehicle): 70%; activity in the mast cell degranulation assay (words) (RBL-2H3 cells): strongly inhibitory; inhibition of the release of β-hexosaminidase (RBL-2H3 cells; 25 μM, vs solvent vehicle): 65%
4 | CCCCCCCCCCCCC/C=C/[C@@H](O)[C@H](CO)NC(=O)COCCOC [Compound 10h, N-(3,6-Dioxaheptanoyl)-D-erythro-sphingosine] | 72.2% | 75% | – | result in the virus budding assay (Influenza virus): particularly good results; inhibition at 25 µM (RBL-2H3 cells; [3]): 71%
5 | CCCCCCCCCCCCC/C=C/[C@@H](OC)[C@H](CO)NC(=O)CCCCC [Compound 10k] | 98.6% | 59.3% | – | –
6 | CCCCCCCCCCCCC/C=C/[C@@H](OC)[C@@H](N)CO [Compound 10l, 3-Methylated D-erythro-sphingosine] | – | – | – | inhibition at 25 µM (RBL-2H3 cells; [3]): 84%
7 | CCCCCCCCCCCCC/C=C/[C@@H](O)[C@H](CO)NCCCCCCCCCCCCCCCC [Compound 10n] | 94.8% | – | 34.7% | –
8 | CCCCCCCCCCCCC/C=C/[C@H](O)[C@H](CO)NCCCCCCCCCCCCCCCC [Compound 10o] | 91.0% | – | 40.8% | –
9 | CCCCCCCCCCCCC/C=C/[C@@H](O)[C@H](CO)NC(=O)/C=C(\C)CC/C=C(\C)CCC=C(C)C [Compound 10p] | – | – | 39.2% | Disrafting Activity [%] (Raft liposomes; GS-96 as marker): 58.9%
10 | CCCCCCCCCCCCC/C=C/[C@@H](OC)[C@H](CO)NC(=O)/C=C(\C)CC/C=C(\C)CCC=C(C)C [Compound 10q] | – | – | 61.6% | –
11 | CCCCCCCCCCCCC/C=C/[C@@H](O)[C@H](CO)NC(=O)COC [Compound 10u] | 97.0% | 70.3% | – | inhibition at 25 µM (RBL-2H3 cells; [3]): 63%
12 | CCCCCCCCCCCCC/C=C/[C@@H](OC)[C@H](CO)NC(=O)COCCOCCOCCOCCOC [Compound 10v] | 96.1% | 87.4% | – | inhibition of viral reproduction (PR8 virus; influenza): very effective inhibition of the viral reproduction; inhibition at 12.5 µM (RBL-2H3 cells; Rattus norvegicus, RBL-2H3, 12.5 μM, vs solvent vehicle): 74%; inhibition at 20 µM (HIV-1 strain NL4-3): 45%
13 | CCCCCCCCCCCCC/C=C/[C@@H](O)[C@H](CO)NC(=O)CCOCCOCCOCCOCCN [Compound 10w] | 53.1% | – | – | inhibition at 25 µM (PR8 virus; [2]): 50.3%; inhibition at 6.25 µM (RBL-2H3 cells; Rattus norvegicus, RBL-2H3, 6.25 μM, vs solvent vehicle): 69%; inhibition at 20 µM (HIV-1 strain NL4-3): 52%
